What follows are compounds tested against T1, wild-type human ALK cytoplasmic domain (amino acids 1058-1620) (Homo sapiens, UniProt Q9UM73) (assay: ALK Inhibition in Enzyme Assay (Lance TR-FRET)). Details: 2 nM enzyme, ATP at 40 μM (Km apparent), 90 minutes, mean of three replicates; read-out: ALK IC50.
T1 construct: The cytoplasmic domain (amino acids 1058-1620) of wild-type human ALK; GST (N); made in house; host or cells: SF9 insect cells
T1 sequence (Q9UM73 1058-1620): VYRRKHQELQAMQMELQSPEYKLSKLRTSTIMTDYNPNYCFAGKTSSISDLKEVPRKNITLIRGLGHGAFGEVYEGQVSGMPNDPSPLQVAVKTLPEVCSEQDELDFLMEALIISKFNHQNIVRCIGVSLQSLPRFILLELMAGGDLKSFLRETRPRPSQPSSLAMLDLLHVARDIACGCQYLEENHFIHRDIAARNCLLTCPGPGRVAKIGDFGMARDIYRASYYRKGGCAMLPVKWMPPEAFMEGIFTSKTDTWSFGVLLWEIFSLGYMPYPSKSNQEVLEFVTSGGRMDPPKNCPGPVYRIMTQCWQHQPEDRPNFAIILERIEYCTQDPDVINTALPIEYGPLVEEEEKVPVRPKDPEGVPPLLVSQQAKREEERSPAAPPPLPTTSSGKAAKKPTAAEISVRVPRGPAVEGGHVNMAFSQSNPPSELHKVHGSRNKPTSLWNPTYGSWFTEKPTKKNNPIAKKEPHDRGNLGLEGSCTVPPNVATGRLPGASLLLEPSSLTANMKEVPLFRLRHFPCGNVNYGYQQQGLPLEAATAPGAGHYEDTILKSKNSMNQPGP
Format: biochemical
Description: ALK Inhibition in Enzyme Assay
Kinase activity of the purified protein was assessed using a Lance® TR-FRET assay. […] The reaction was allowed to proceed for 90 minutes at room temperature and was then terminated with 20 mM EDTA in 50 mM Tris (pH 7.5), 100 mM NaCl, 0.05% BSA, and 0.1% Tween-20. Phosphorylation of the peptide substrate was detected using the Lance® detection reagents streptavidin-allophycocyanin (SA-APC) and Eu-W1024 anti-phosphotyrosine antibody (PT66) from Perkin Elmer Life Sciences (Waltham, Mass.). The plates were read on a RUBY star plate reader (BMG LABTECH, Cary, N.C.) with an excitation wavelength of 320 nm.
`COc1cc(Nc2nccc(N3CCC[C@@H](C(=O)NCc4ccncc4)C3)n2)cc(OC)c1OC` [Example 18, (R)-N-(4-pyridinylmethyl)-1-(2-((3,4,5-trimethoxyphenyl)amino)-4-pyrimidinyl)-3-piperidinecarboxamide] gave an IC50 of 5000 to 10000 nM. Compound `COc1cc(Nc2nccc(N3CCC[C@H](C(=O)NCCc4ccccc4F)C3)n2)cc(OC)c1OC` [Example 102, (S)-N-(2-(2-fluorophenyl)ethyl)-1-(2-((3,4,5-trimethoxyphenyl)amino)-4-pyrimidinyl)-3-piperidinecarboxamide] has an IC50 of 100 to 1000 nM. In the case of `CCN(CC)CCNC(=O)c1ccc(Nc2nccc(N3CCC[C@H](C(=O)NCc4ccc(C)cc4)C3)n2)cc1` [Example 187, (S)-1-(2-(4-(2-(diethylamino)ethylcarba-moyl)phenylamino)pyri-midin-4-yl)-N-(4-methylbenzyl)piperidine-3-carboxamide], the IC50 is reported as 100 to 1000 nM. In the case of `COc1cc(Nc2nccc(N3CCC[C@H](C(=O)NCc4cccc(-c5ccc(Cl)cc5)c4)C3)n2)cc(OC)c1OC` [Example 106, (S)-N-((4′-chloro-3-biphenylyl)methyl)-1-(2-((3,4,5-trimethoxyphenyl)amino)-4-pyrimidinyl)-3-piperidinecarboxamide], the IC50 is reported as < 50 nM. In the case of `COc1cc(Nc2nccc(N3CCC[C@H](C(=O)NCc4cccc(-n5cccn5)c4)C3)n2)cc(OC)c1OC` [Example 111, (S)-N-(3-(1H-pyrazol-1-yl)benzyl)-1-(2-((3,4,5-trimethoxyphenyl)amino)-4-pyrimidinyl)-3-piperidinecarboxamide], the IC50 is reported as 100 to 1000 nM. `COc1cc(Nc2nccc(N3CCC[C@H](C(=O)NCc4ccc5c(c4)OCCO5)C3)n2)cc(OC)c1OC` [Example 77, (S)-N-(2,3-dihydro-1,4-benzodioxin-6-ylmethyl)-1-(2-((3,4,5-trimethoxyphenyl)amino)-4-pyrimidinyl)-3-piperidinecarboxamide] showed an IC50 of 1000 to 5000 nM. `CCOC(=O)C(C)Cc1cccc(CNC(=O)[C@H]2CCCN(c3ccnc(Nc4cc(OC)c(OC)c(OC)c4)n3)C2)c1` (stereo partly drawn) [Example 109, ethyl 2-methyl-3-(3-(((((S)-1-(2-((3,4,5-trimethoxyphenyl)amino)-4-pyrimidinyl)-3-piperidinyl)carbonyl)amino)methyl)phenyl)propanoate] gave an IC50 of 100 to 1000 nM. With `COc1cc(Nc2nccc(N3CCC[C@H](C(=O)NCCc4cccc(F)c4)C3)n2)cc(OC)c1OC` [Example 95, (S)-N-(2-(3-fluorophenyl)ethyl)-1-(2-((3,4,5-trimethoxyphenyl)amino)-4-pyrimidinyl)-3-piperidinecarboxamide] the IC50 was 100 to 1000 nM. With `Cc1ccc(CNC(=O)[C@H]2CCCN(c3ccnc(Nc4cccc(C(C)O)c4)n3)C2)cc1` (stereo partly drawn) [Example 167, (3S)-1-(2-((3-(1-hydroxyethyl)phenyl)amino)-4-pyrimidinyl)-N-(4-methylbenzyl)-3-piperidinecarboxamide] the IC50 was 100 to 1000 nM. Compound `COc1cc(Nc2nccc(N3CCC[C@H](C(=O)NC(C)c4ccc(Br)cc4)C3)n2)cc(OC)c1OC` (stereo partly drawn) [Example 26, (S)-N-(1-(4-bromophenyl)ethyl)-1-(2-((3,4,5-trimethoxyphenyl)amino)-4-pyrimidinyl)-3-piperidinecarboxamide] has an IC50 of 100 to 1000 nM. Work on `COc1cc(Nc2nccc(N3CCC[C@H](C(=O)NCc4cccc(F)c4)C3)n2)cc(OC)c1OC` [Example 104, (S)-N-(3-fluorobenzyl)-1-(2-((3,4,5-trimethoxyphenyl)amino)-4-pyrimidinyl)-3-piperidinecarboxamide] yielded an IC50 of 100 to 1000 nM. `Cc1ccc(CNC(=O)[C@H]2CCCN(c3ccnc(Nc4cnc5ccccc5c4)n3)C2)cc1` [Example 130, (3S)-N-(4-methylbenzyl)-1-(2-(3-quinolinylamino)-4-pyrimidinyl)-3-piperidinecarboxamide] showed an IC50 of 1000 to 5000 nM. `COc1cc(Nc2nccc(N3CCC[C@H](C(=O)NCCc4ccc(C(F)(F)F)cc4)C3)n2)cc(OC)c1OC` [Example 91, (S)-N-(2-(4-(trifluoromethyl)phenyl)ethyl)-1-(2-((3,4,5-trimethoxyphenyl)amino)-4-pyrimidinyl)-3-piperidinecarboxamide] showed an IC50 of 50 to 100 nM. In the case of `CCOc1ccc(Nc2nccc(N3CCC[C@H](C(=O)NCc4ccc(C)cc4)C3)n2)cc1` [Example 192, (S)-1-(2-(4-ethoxyphenylamino)pyrimidin-4-yl)-N-(4-methylbenzyl)piperidine-3-carboxamide], the IC50 is reported as 1000 to 5000 nM. With `COc1cc(Nc2nccc(N3CCC[C@H](C(=O)NC(C)c4ccc(C)cc4)C3)n2)cc(OC)c1OC` (stereo partly drawn) [Example 55, (S)-N-(1-(4-methylphenyl)ethyl)-1-(2-((3,4,5-trimethoxyphenyl)amino)-4-pyrimidinyl)-3-piperidinecarboxamide] the IC50 was 100 to 1000 nM. Work on `CCOc1cccc(Nc2nccc(N3CCC[C@H](C(=O)NCc4ccc(C)cc4)C3)n2)c1` [Example 148, (3S)-1-(2-((3-ethoxyphenyl)amino)-4-pyrimidinyl)-N-(4-methylbenzyl)-3-piperidinecarboxamide] yielded an IC50 of 100 to 1000 nM. With `Cc1ccc(CNC(=O)[C@H]2CCCN(c3ccnc(Nc4cc(C(C)(C)C)cc(C(C)(C)C)c4)n3)C2)cc1` [Example 153, (3S)-1-(2-((3,5-di-tert-butylphenyl)amino)-4-pyrimidinyl)-N-(4-methylbenzyl)-3-piperidinecarboxamide] the IC50 was 1000 to 5000 nM. Compound `COc1cc(Nc2nccc(N3CCC[C@H](C(=O)NCc4ccc5[nH]c(C)cc5c4)C3)n2)cc(OC)c1OC` [Example 76, (S)-N-((2-methyl-1H-indol-5-yl)methyl)-1-(2-((3,4,5-trimethoxyphenyl)amino)-4-pyrimidinyl)-3-piperidinecarboxamide] has an IC50 of 50 to 100 nM. Work on `Cc1ccc(CNC(=O)[C@H]2CCCN(c3ccnc(Nc4ccc(N5CCN(C)CC5)cc4)n3)C2)cc1` [Example 161, (3S)-N-(4-methylbenzyl)-1-(2-((4-(4-methyl-1-piperazinyl)phenyl)ami-no)-4-pyrimidinyl)-3-piperidinecarboxamide] yielded an IC50 of 100 to 1000 nM. Compound `Cc1ccc(CNC(=O)[C@H]2CCCN(c3ccnc(Nc4cc(C)cc(C)c4)n3)C2)cc1` [Example 155, (3S)-1-(2-((3,5-dimethylphenyl)amino)-4-pyrimidinyl)-N-(4-methylbenzyl)-3-piperidinecarboxamide] has an IC50 of 1000 to 5000 nM. With `COc1cc(Nc2nccc(N3CCC[C@H](C(=O)NCc4cccc(-n5cccc5)c4)C3)n2)cc(OC)c1OC` [Example 110, (S)-N-(3-(1H-pyrrol-1-yl)benzyl)-1-(2-((3,4,5-trimethoxyphenyl)amino)-4-pyrimidinyl)-3-piperidinecarboxamide] the IC50 was < 50 nM. For `COc1cc(Nc2nccc(N3CCC[C@H](C(=O)NCc4ccc(C(C)C)cc4)C3)n2)cc(OC)c1OC` [Example 117, (S)-N-(4-(1-methylethyl)benzyl)-1-(2-((3,4,5-trimethoxyphenyl)amino)-4-pyrimidinyl)-3-piperidinecarboxamide], the IC50 was < 50 nM. With `COc1cc(Nc2nccc(N3CCC[C@H](C(=O)NCCc4ccc(C)cc4)C3)n2)cc(OC)c1OC` [Example 92, (S)-N-(2-(4-methylphenyl)ethyl)-1-(2-((3,4,5-trimethoxyphenyl)amino)-4-pyrimidinyl)-3-piperidinecarboxamide] the IC50 was 100 to 1000 nM. `COc1cc(Nc2nccc(N3CCC[C@H](C(=O)NCc4ccc(F)c(Cl)c4)C3)n2)cc(OC)c1OC` [Example 68, (S)-N-(3-chloro-4-fluorobenzyl)-1-(2-((3,4,5-trimethoxyphenyl)amino)-4-pyrimidinyl)-3-pipcridinecarboxamide] showed an IC50 of 100 to 1000 nM. In the case of `COc1cccc(CNC(=O)[C@H]2CCCN(c3ccnc(Nc4cc(OC)c(OC)c(OC)c4)n3)C2)c1` [Example 38, (S)-N-(3-methoxybenzyl)-1-(2-((3,4,5-trimethoxyphenyl)amino)-4-pyrimidinyl)-3-piperidinecarboxamide], the IC50 is reported as 100 to 1000 nM. `COc1cc(Nc2nccc(N3CCC[C@H](C(=O)NCc4cc(C)cc(C)c4)C3)n2)cc(OC)c1OC` [Example 81, (S)-N-(3,5-dimethylbenzyl)-1-(2-((3,4,5-trimethoxyphenyl)amino)-4-pyrimidinyl)-3-piperidinecarboxamide] gave an IC50 of 5000 to 10000 nM. With `COc1cc(Nc2nccc(N3CC(C)CC(C(=O)NCc4ccc(C)cc4)C3)n2)cc(OC)c1OC` (mixture of isomers) [Example 195, 5-Methyl-N-(4-Methylbenzyl)-1-(2-(3,4,5-Trimethoxyphenyl Amino)Pyrimidin-4-Yl)Piperidine-3-Carboxamide] the IC50 was 1000 to 5000 nM. `COc1cc(Nc2nccc(N3CCC[C@H](C(=O)NCc4ccc(-c5ccccc5Cl)cc4)C3)n2)cc(OC)c1OC` [Example 121, (S)-N-((2′-chloro-4-biphenylyl)methyl)-1-(2-((3,4,5-trimethoxyphenyl)amino)-4-pyrimidinyl)-3-piperidinecarboxamide] was tested, and the IC50 was 100 to 1000 nM. Work on `COc1cc(Nc2nccc(N3CCC[C@H](C(=O)NCc4ccc(N5CCOCC5)cc4)C3)n2)cc(OC)c1OC` [Example 78, (S)-N-(4-(4-morpholinyl)benzyl)-1-(2-((3,4,5-trimethoxyphcnyl)amino)-4-pyrimidinyl)-3-piperidinecarboxamide] yielded an IC50 of 1000 to 5000 nM. In the case of `COc1cc(Nc2nc(Cl)cc(N3CCC[C@H](C(=O)NCc4ccc(C)cc4)C3)n2)cc(OC)c1OC` [Example 12, (S)-1-(6-Chloro-2-(3,4,5-Trimethoxyphenyl-Amino)Pyrimidin-4-Yl)-N-(4-Methylbenzyl)Piperidine-3-Carboxamide], the IC50 is reported as > 10000 nM. With `Cc1ccc(CNC(=O)[C@H]2CCCN(c3ccnc(Nc4cccc(C(C)C)c4)n3)C2)cc1` [Example 171, (3S)-N-(4-methylbenzyl)-1-(2-((3-(1-methylethyl)phenyl)amino)-4-pyrimidinyl)-3-piperidinecarboxamide] the IC50 was 100 to 1000 nM.

— US8716281B2, “Pyrimidine compounds that inhibit anaplastic lymphoma kinase” (Amgen Inc., priority 2010, dated 2014)
